The test system of series [1] is Leishmania infantum. Put plainly: Leishmanicidal activity against Leishmania infantum amastigotes after 24 hrs by propidium iodide staining based flow cytometry. Type of series: functional. A general note: A flow cytometer gives signals particle by particle.
Series [2] in a line: Selectivity index, ratio of LC50 for cytotoxicity against human THP1 cells to LC50 for leishmanicidal activity against Leishmania infantum MCAN/ES/89/IPZ229/1/89 promastigotes. To be noted: THP-1 cells, read-out: RatioLC50. Type of series: toxicity, cell-based.
The nature of series [3]: Selectivity index, ratio of LC50 for cytotoxicity against human THP1 cells to LC50 for leishmanicidal activity against Leishmania infantum amastigotes. In kind it is toxicity, cell-based. To be noted: THP-1 cells, read-out: RatioLC50.
The subject of series [4] is Leishmania infantum. Put plainly: Leishmanicidal activity against Leishmania infantum MCAN/ES/89/IPZ229/1/89 promastigotes after 24 hrs by propidium iodide staining based flow cytometry. In kind it is functional. To be noted: MCAN/ES/89/IPZ229/1/89, 24 h.
Series [5] is described as follows: Cytotoxicity against human THP1 cells after 24 hrs by propidium iodide staining based flow cytometry. Type of series: cell-based. To be noted: THP-1 cells, read-out: LC50.
Series [6] deals with Leishmania infantum. Put plainly: Leishmanicidal activity against Leishmania infantum amastigotes at 25 uM after 24 hrs by propidium iodide staining based flow cytometry. In kind it is functional, organism-based.
The target in the next series is Proteinase K (Engyodontium album, UniProt P06873). As to the kind of experiment: Stability assessed as Tritirachium album proteinase K-mediated compound degradation by measuring half life at 50 uM by HPLC method. Type of series: ADME. To be noted: parengyodontium album.
Sequence of Proteinase K (P06873 whole entry): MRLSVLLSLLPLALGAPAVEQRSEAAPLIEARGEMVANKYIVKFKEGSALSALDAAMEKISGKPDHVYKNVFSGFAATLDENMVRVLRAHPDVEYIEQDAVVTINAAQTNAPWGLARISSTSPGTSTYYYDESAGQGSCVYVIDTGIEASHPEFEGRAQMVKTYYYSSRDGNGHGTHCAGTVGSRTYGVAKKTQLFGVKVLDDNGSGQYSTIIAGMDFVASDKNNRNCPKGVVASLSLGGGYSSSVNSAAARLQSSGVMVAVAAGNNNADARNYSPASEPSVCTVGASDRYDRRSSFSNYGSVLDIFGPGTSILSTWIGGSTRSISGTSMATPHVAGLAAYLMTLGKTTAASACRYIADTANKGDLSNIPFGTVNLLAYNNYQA
In series [7] the target is T1, Trypanothione reductase (Leishmania infantum, UniProt A4HSF7). As to the kind of experiment: Inhibition of oxidoreductase activity of recombinant Leishmania infantum trypanothione reductase pre-incubated for 10 mins before T[S]2 and NADPH addition.
T1 sequence (A4HSF7 whole entry): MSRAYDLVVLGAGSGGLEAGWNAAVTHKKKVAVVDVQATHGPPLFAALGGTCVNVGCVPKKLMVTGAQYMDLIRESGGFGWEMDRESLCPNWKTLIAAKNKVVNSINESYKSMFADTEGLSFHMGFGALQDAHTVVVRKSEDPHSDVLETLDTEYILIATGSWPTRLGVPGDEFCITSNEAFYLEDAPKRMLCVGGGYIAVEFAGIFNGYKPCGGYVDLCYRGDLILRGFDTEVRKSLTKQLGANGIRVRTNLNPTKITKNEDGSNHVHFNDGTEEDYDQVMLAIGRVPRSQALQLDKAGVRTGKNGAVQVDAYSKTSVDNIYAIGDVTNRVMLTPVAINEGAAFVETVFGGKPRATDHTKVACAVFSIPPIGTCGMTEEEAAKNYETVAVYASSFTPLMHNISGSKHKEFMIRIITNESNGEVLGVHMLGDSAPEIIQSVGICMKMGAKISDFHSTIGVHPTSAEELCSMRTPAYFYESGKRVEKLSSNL
The target of series [8] is T1, Trypanothione reductase. Put plainly: Inhibition of dimerization of HIS/FLAG tagged Leishmania infantum trypanothione reductase incubated for 16 hrs in presence of dimerization buffer by ELISA. On the technique in general: ELISA stands for enzyme-linked immunosorbent assay.
Series [9] deals with Leishmania infantum. Put plainly: Leishmanicidal activity against Leishmania infantum MCAN/ES/89/IPZ229/1/89 promastigotes at 25 uM after 24 hrs by propidium iodide staining based flow cytometry. Type of series: functional, organism-based.

Each structure is given as a SMILES string. Calls of active or inactive are those of the source. Numbered stars: 1 amine (or outer) side, 2 acyl side, 3 side chain; on linkers, the order of the positions; unused ones are H or OH. Bridge positions count the residues as written; N and C are the ends. Square brackets hold non-standard residues; d marks the D form. Peptide text beside a SMILES is read from it. I, II: the chains in the order shown. X2 = NCCCC[C@H](N[*:2])C(=O)C1CCCCN([C@@H](CCC(=O)O)C(=O)[*:1])C(=O)C1; X1 = O=C(CC[C@@H]1CCCN1[*:1])[*:2]; β3hI = CC[C@H](C)[C@H](N)CC(=O)O; β3hQ = NC(=O)CC[C@H](N)CC(=O)O; β3hK = NCCCC[C@H](N)CC(=O)O; β3hS = N[C@@H](CO)CC(=O)O; Nle = CCCC[C@H](N)C(=O)O; β3hA = C[C@H](N)CC(=O)O

One may read the LC50 as the concentration lethal to half of the exposed cells or organisms. For the compound `CCCC[C@H](NC(=O)[C@H](CCCCN)NC(=O)[C@H](CCCC)NC(=O)[C@H](CO)NC(=O)[C@@H](NC(=O)CNC(=O)[C@H](CCCCN)NC(=O)[C@H](CO)NC(=O)[C@H](CCC(N)=O)NC(=O)[C@@H](NC(=O)[C@H](CCC(=O)O)N1CCCCC(C(=O)[C@H](CCCCN)NC(=O)[C@@H]2CCCN2C(=O)[C@H](CCCNC(=N)N)NC(=O)[C@H](CCCNC(=N)N)NC(=O)[C@H](CCCNC(=N)N)NC(=O)[C@H](CCCNC(=N)N)NC(=O)[C@H](CCCNC(=N)N)NC(=O)[C@H](CCCNC(=N)N)NC(=O)[C@H](CCCNC(=N)N)NC(=O)[C@H](CCCNC(=N)N)NC(=O)[C@@H](N)CCCNC(=N)N)CC1=O)[C@@H](C)CC)[C@@H](C)CC)C(=O)O` (stereo partly specified) (I: IQSKGIS[Nle]K[Nle]-OH / II: H-RRRRRRRRRP; linker I:N-II:C via X2), the LC50 in the series on Leishmania infantum [1] was found to be 2.8 µM; with Leishmania infantum [4] it was 3.5 µM. For the same compound, the selectivity ratio in series [2] and in series [3] was less than 1 each time. In addition, the CC50 at 24 h in [5] was found to be 2.5 µM.
As a reminder, the half-life is the time needed for the level to fall by half in the phase considered. As usually defined, the IC50 is the concentration needed to halve the response being measured. With `CCCC[C@H](NC(=O)C[C@H](CCCCN)NC(=O)[C@H](CCCC)NC(=O)C[C@H](CO)NC(=O)[C@@H](NC(=O)C[C@H](C)NC(=O)[C@@H](NC(=O)C[C@H](CO)NC(=O)C[C@H](CCC(N)=O)NC(=O)[C@@H](NC(=O)[C@@H](NC(=O)[C@H](CCCCN)NC(=O)CC[C@@H]1CCCN1C(C)=O)[C@@H](C)CC)[C@@H](C)CC)C(C)C)[C@@H](C)CC)C(N)=O` (Ac-[X1]KII[β3hQ][β3hS]V[β3hA]I[β3hS][Nle][β3hK][Nle]-NH2), the outcome in the series with Leishmania infantum [6] and in the series on Leishmania infantum [9] was inactive. Besides, the half-life at 50 µM on Proteinase K was less than 0.25 h. Moreover, the IC50 was 1.65 µM at Trypanothione reductase [7] and 12.8 µM at Trypanothione reductase [8].
As to `CCCCCCCCCCCCCCCCOP(=O)([O-])OCC[N+](C)(C)C` [MILTEFOSINE], in the series with Leishmania infantum [1], the LC50 worked out at 2 µM. The results for the selectivity ratio in series [2] and in [3] were less than 1 and 9.5, respectively.
As for `CCCC[C@H](NC(=O)[C@H](CCCCN)NC(=O)[C@H](CC(C)C)NC(=O)C[C@H](CO)NC(=O)[C@@H](NC(=O)CNC(=O)[C@@H](NC(=O)C[C@H](CO)NC(=O)[C@H](CCC(N)=O)NC(=O)[C@@H](NC(=O)C[C@@H](NC(=O)[C@H](CCCCN)NC(=O)[C@@H]1CCCN1C(=O)[C@H](CCCNC(=N)N)NC(=O)[C@H](CCCNC(=N)N)NC(=O)[C@H](CCCNC(=N)N)NC(=O)[C@H](CCCNC(=N)N)NC(=O)[C@H](CCCNC(=N)N)NC(=O)[C@H](CCCNC(=N)N)NC(=O)[C@H](CCCNC(=N)N)NC(=O)[C@H](CCCNC(=N)N)NC(=O)[C@@H](N)CCCNC(=N)N)[C@@H](C)CC)[C@@H](C)CC)C(C)C)[C@@H](C)CC)C(N)=O` (H-RRRRRRRRRPK[β3hI]IQ[β3hS]VGI[β3hS]LK[Nle]-NH2), the LC50 with Leishmania infantum [1] is 1.9 µM; in the series on Leishmania infantum [4], 0.98 µM. Further, the values for the selectivity ratio in series [2] and in [3] were 5.9 and 3.1, respectively. The CC50 at 24 h in series [5] is 5.8 µM.
`CC[C@H](C)[C@H](NC(=O)CNC(=O)[C@@H](NC(=O)C[C@H](CO)NC(=O)[C@H](CCC(N)=O)NC(=O)[C@@H](NC(=O)C[C@@H](NC(=O)[C@H](CCCCN)NC(=O)[C@@H]1CCCN1C(C)=O)[C@@H](C)CC)[C@@H](C)CC)C(C)C)C(N)=O`: the result with Leishmania infantum [6] and in the series with Leishmania infantum [9] was inactive. At Proteinase K, the half-life at 50 µM was 3.97 h. Also, the IC50 on Trypanothione reductase [7] was more than 75 µM; at Trypanothione reductase [8], 22.3 µM.
With `N=C(N)NCCC[C@H](NC(=O)[C@H](CCCNC(=N)N)NC(=O)[C@H](CCCNC(=N)N)NC(=O)[C@H](CCCNC(=N)N)NC(=O)[C@H](CCCNC(=N)N)NC(=O)[C@H](CCCNC(=N)N)NC(=O)[C@H](CCCNC(=N)N)NC(=O)[C@H](CCCNC(=N)N)NC(=O)[C@@H](N)CCCNC(=N)N)C(N)=O`, the LC50 with Leishmania infantum [1] and with Leishmania infantum [4] was more than 25 µM in each case. Also, the CC50 at 24 h in series [5] was more than 25 µM.
Take `CC[C@H](C)[C@H](NC(=O)CNC(=O)[C@@H](NC(=O)[C@H](CO)NC(=O)[C@H](CCC(N)=O)NC(=O)[C@@H](NC(=O)[C@@H](NC(=O)[C@H](CCCCN)NC(=O)[C@@H]1CCCN1C(=O)[C@H](CCCNC(=N)N)NC(=O)[C@H](CCCNC(=N)N)NC(=O)[C@H](CCCNC(=N)N)NC(=O)[C@H](CCCNC(=N)N)NC(=O)[C@H](CCCNC(=N)N)NC(=O)[C@H](CCCNC(=N)N)NC(=O)[C@H](CCCNC(=N)N)NC(=O)[C@H](CCCNC(=N)N)NC(=O)[C@@H](N)CCCNC(=N)N)[C@@H](C)CC)[C@@H](C)CC)C(C)C)C(=O)N[C@@H](CO)C(=O)N[C@@H](CC(C)C)C(=O)N[C@@H](CCCCN)C(=O)N[C@@H](CC(C)C)C(=O)O` (H-RRRRRRRRRPKIIQSVGISLKL-OH): the LC50 was 3.5 µM with Leishmania infantum [1] and 4.6 µM in the series with Leishmania infantum [4]. The selectivity ratio in series [2] and in series [3] was less than 1 in each case. Further, in series [5], the CC50 at 24 h was found to be 1.7 µM.
For `CCCCCCCCCCCCCCCCCCOC[C@H](COP(=O)([O-])OCC[N+](C)(C)C)OC` [(R)-EDELFOSINE], the LC50 with Leishmania infantum [1] stood at 0.6 µM; with Leishmania infantum [4], 9 µM. The selectivity ratio in series [2] is less than 1; in [3], 1.7. Also, the CC50 at 24 h in series [5] amounted to 1 µM.
